From patent US20200138854A1, “Method of Detecting and Quantifying Bile Acid from Saliva” (Ironwood Pharmaceuticals, Inc., priority 2017, published 2020)
Values joined by “and” are separate entries in the source; they are usually repeats but may differ in a detail not shown here. Equal values may be shown once. Read-outs that look alike come from different tables or passages of the source. Marks after values point to notes of the source that are not given here. One block for each molecule: values may come before it.

Experiments:
[1] = Frozen (−20° C.) short-term stability in cholestyramine-treated human saliva; details: for % Bias / Concentration, Mean / Concentration: −20° C.; for Concentration: individual values
Procedure: Quality control samples for the evaluation of accuracy and precision and for run acceptance were prepared on the day of sample extraction. QC samples prepared in cholestyramine-treated saliva are to be prepared in small volumes for analysis. Stability for these QC samples would be limited to short-term storage (i.e., 2 days) whereas untreated human saliva would be evaluated for long-term storage.
For stability in cholestyramine-treated human saliva, samples were prepared by spiking cholestyramine-treated human saliva with each analyte at the QC-LLOQ, QC-Low, QC-Mid and QC-High levels. The samples were stored in a −20° C. freezer. After 1 day and 2 days of storage, each sample was extracted in replicates of four for analysis.

[2] = Long-term (1 month at −20° C. and −80° C.) stability in untreated human saliva; details: for % Bias / Concentration, Mean / Difference from Fresh (%) / Concentration: 1 month; for Concentration: individual values; for % Bias QC-High / Difference from Fresh (%) QC-High / Mean concentration QC-High / Concentration QC-High / Mean at Time Zero, Fresh QCs (Batch 34), QC-High / % CV QC-High / Fresh QCs (Batch 34) Mean at Time Zero, QC-High: untreated human saliva
Procedure: (§1) For long-term stability in untreated human saliva, samples were prepared by spiking untreated human saliva with each analyte at the QC-Low and QC-High levels. The samples were stored in a −20° C. freezer and in a −80° C. freezer. After 1 month of storage, each sample was extracted in replicates of three for analysis.
(§2) A 100-μL aliquot of sample (calibration standards, quality controls, blanks, and stability samples) was transferred into a 96 well plate, according to a pre-defined layout. […] The plates were covered, vortex-mixed and then centrifuged for 5 minutes at 3200 rpm. Supernatants (350 μL each) were transferred into the corresponding wells of a clean 96 well plate and evaporated to dryness under nitrogen in a Turbovap set to 40° C. The dried residue in each well was reconstituted with 75 μL of 50:50 (v:v) methanol:water.

[3] = 1 month
Procedure: as §1, §2

[4] = 1 Day, QC-High, nominal 80.0 ng/mL
[5] = 1 Day, QC-LLOQ, nominal 0.500 ng/mL
[6] = 1 Day, QC-Mid, nominal 8.00 ng/mL
[7] = 2 Days, QC-High, nominal 80.0 ng/mL
[8] = 2 Days, QC-LLOQ, nominal 0.500 ng/mL
[9] = 2 Days, QC-Mid, nominal 8.00 ng/mL
[10] = −20° C. Storage, QC-High, nominal 80.0 ng/mL
[11] = −80° C. Storage, QC-High, nominal 80.0 ng/mL
[12] = nominal 0.500 ng/mL, 1 Day frozen (−20° C.), cholestyramine-treated human saliva
[13] = nominal 0.500 ng/mL, 2 Days frozen (−20° C.), cholestyramine-treated human saliva
[14] = nominal 8.00 ng/mL, 1 Day frozen (−20° C.), cholestyramine-treated human saliva
[15] = nominal 8.00 ng/mL, 2 Days frozen (−20° C.), cholestyramine-treated human saliva
[16] = nominal 80.0 ng/mL, 1 Day frozen (−20° C.), cholestyramine-treated human saliva
[17] = nominal 80.0 ng/mL, 2 Days frozen (−20° C.), cholestyramine-treated human saliva
[18] = nominal 80.0 ng/mL, 1 month −20° C. storage
[19] = nominal 80.0 ng/mL, 1 month −80° C. storage
[20] = 1 Day at −20° C., nominal 0.500 ng/mL
[21] = 1 Day at −20° C., nominal 8.00 ng/mL
[22] = 1 Day at −20° C., nominal 80.0 ng/mL
[23] = 2 Days at −20° C., nominal 0.500 ng/mL
[24] = 2 Days at −20° C., nominal 8.00 ng/mL
[25] = 2 Days at −20° C., nominal 80.0 ng/mL
[26] = 1 month −20° C. storage, nominal 80.0 ng/mL
[27] = 1 month −80° C. storage, nominal 80.0 ng/mL

SMILES: CC(CCC(=O)NCC(=O)O)C1CCC2C3CCC4CC(O)CCC4(C)C3CC(O)C12C (stereo not drawn) [Glycodeoxycholic Acid, Glycodeoxycholic acid]
Short-term stability in cholestyramine-treated human saliva ([1]; human): up to 2 days
Stability in Treated Human Saliva ([1]; human): 2 days
% Bias [1, 4]: −5.0%
Concentration, Mean [1, 4]: 76.0 ng/mL
Concentration [1, 4]: 76.0 ng/mL and 78.9 ng/mL and 73.6 ng/mL and 75.5 ng/mL
% Bias [1, 5]: −1.1%
Concentration, Mean [1, 5]: 0.495 ng/mL
Concentration [1, 5]: 0.500 ng/mL and 0.472 ng/mL and 0.488 ng/mL and 0.519 ng/mL
% Bias [1, 6]: −5.0%
Concentration, Mean [1, 6]: 7.60 ng/mL
Concentration [1, 6]: 7.43 ng/mL and 8.14 ng/mL and 7.61 ng/mL and 7.21 ng/mL
% Bias [1, 7]: −6.1%
Concentration, Mean [1, 7]: 75.2 ng/mL
Concentration [1, 7]: 74.0 ng/mL and 73.3 ng/mL and 75.6 ng/mL and 77.7 ng/mL
% Bias [1, 8]: 15.0%
Concentration, Mean [1, 8]: 0.575 ng/mL
Concentration [1, 8]: 0.654^a ng/mL and 0.589 ng/mL and 0.551 ng/mL and 0.599 ng/mL
% Bias [1, 9]: 2.5%
Concentration, Mean [1, 9]: 8.20 ng/mL
Concentration [1, 9]: 7.91 ng/mL and 7.87 ng/mL and 8.54 ng/mL and 8.49 ng/mL
% Bias [2, 10]: −3.9%
Concentration, Mean [2, 10]: 76.9 ng/mL
Difference from Fresh (%) [2, 10]: 0.7%
Concentration [2, 10]: 75.5 ng/mL and 75.9 ng/mL and 79.2 ng/mL
% Bias [2, 11]: −0.1%
Concentration, Mean [2, 11]: 79.9 ng/mL
Difference from Fresh (%) [2, 11]: 4.7%
Concentration [2, 11]: 81.9 ng/mL and 80.0 ng/mL and 77.8 ng/mL
Fresh QCs (Batch 34) Mean at Time Zero ([2]; QC-High, nominal 80.0 ng/mL): 76.3 ng/mL
Long-term stability in untreated human saliva [3]: up to 1 month
Stability in Untreated Human Saliva [3]: 1 Month

Short-term stability in cholestyramine-treated human saliva ([1]; human): up to 2 days
Stability in Treated Human Saliva ([1]; human): 2 days
% Bias QC-LLOQ [1, 12]: −1.8%
Mean concentration QC-LLOQ [1, 12]: 0.491 ng/mL
% Bias QC-LLOQ [1, 13]: 8.5%
Mean concentration QC-LLOQ [1, 13]: 0.542 ng/mL
% Bias QC-Mid [1, 14]: −10.3%
Mean concentration QC-Mid [1, 14]: 7.18 ng/mL
% Bias QC-Mid [1, 15]: −8.3%
Mean concentration QC-Mid [1, 15]: 7.34 ng/mL
% Bias QC-High [1, 16]: −7.5%
Mean concentration QC-High [1, 16]: 74.0 ng/mL
% Bias QC-High [1, 17]: −6.7%
Mean concentration QC-High [1, 17]: 74.7 ng/mL
Long-term stability in untreated human saliva ([2]; at 80° C. (sic)): up to 1 month
Stability in Untreated Human Saliva ([2]; at −20° C.): 1 Month
Stability in Untreated Human Saliva ([2]; at −80° C.): 1 Month
% Bias QC-High [2, 18]: −5.9%
Difference from Fresh (%) QC-High [2, 18]: −6.3%
Mean concentration QC-High [2, 18]: 75.3 ng/mL
Concentration QC-High ([2]; nominal 80.0 ng/mL, 1 month −20° C. storage, single determinations): 72.8 ng/mL and 75.6 ng/mL and 77.5 ng/mL
% Bias QC-High [2, 19]: −4.8%
Difference from Fresh (%) QC-High [2, 19]: −5.3%
Mean concentration QC-High [2, 19]: 76.1 ng/mL
Concentration QC-High ([2]; nominal 80.0 ng/mL, 1 month −80° C. storage, single determinations): 78.4 ng/mL and 75.9 ng/mL and 74.1 ng/mL
Mean at Time Zero, Fresh QCs (Batch 34), QC-High ([2]; nominal 80.0 ng/mL, reference for −20° C. storage): 80.4 ng/mL
Mean at Time Zero, Fresh QCs (Batch 34), QC-High ([2]; nominal 80.0 ng/mL, reference for −80° C. storage): 80.4 ng/mL
SMILES: C[C@H](CCC(=O)NCC(=O)O)[C@H]1CC[C@H]2[C@@H]3[C@H](O)C[C@@H]4C[C@H](O)CC[C@]4(C)[C@H]3C[C@H](O)[C@]12C [Glycocholic Acid, Glycocholic acid]
Concentration QC-LLOQ ([1]; nominal 0.500 ng/mL, 1 Day frozen (−20° C.), cholestyramine-treated human saliva, single determinations): 0.485 ng/mL and 0.474 ng/mL and 0.464 ng/mL and 0.541 ng/mL
Concentration QC-LLOQ ([1]; nominal 0.500 ng/mL, 2 Days frozen (−20° C.), cholestyramine-treated human saliva, single determinations): 0.464 ng/mL and 0.541 ng/mL and 0.485 ng/mL and 0.474 ng/mL
Concentration QC-Mid ([1]; nominal 8.00 ng/mL, 1 Day frozen (−20° C.), cholestyramine-treated human saliva, single determinations): 7.20 ng/mL and 7.21 ng/mL and 7.28 ng/mL and 7.01 ng/mL
Concentration QC-Mid ([1]; nominal 8.00 ng/mL, 2 Days frozen (−20° C.), cholestyramine-treated human saliva, single determinations): 7.28 ng/mL and 7.01 ng/mL and 7.20 ng/mL and 7.21 ng/mL
Concentration QC-High ([1]; nominal 80.0 ng/mL, 1 Day frozen (−20° C.), cholestyramine-treated human saliva, single determinations): 73.2 ng/mL and 74.9 ng/mL and 73.6 ng/mL and 74.2 ng/mL
Concentration QC-High ([1]; nominal 80.0 ng/mL, 2 Days frozen (−20° C.), cholestyramine-treated human saliva, single determinations): 73.6 ng/mL and 74.2 ng/mL and 73.2 ng/mL and 74.9 ng/mL

SMILES: C[C@H](CCC(=O)NCCS(=O)(=O)O)[C@H]1CC[C@H]2[C@@H]3[C@H](O)C[C@@H]4C[C@H](O)CC[C@]4(C)[C@H]3C[C@H](O)[C@]12C [Taurocholic Acid, Taurocholic acid]
% Bias QC-LLOQ [1, 20]: −1.1%
% CV QC-LLOQ [1, 20]: 2.4%
Mean concentration QC-LLOQ [1, 20]: 0.495 ng/mL
Concentration QC-LLOQ ([1]; 1 Day at −20° C., nominal 0.500 ng/mL, run 33): 0.481 ng/mL and 0.509 ng/mL and 0.491 ng/mL and 0.498 ng/mL
% Bias QC-Mid [1, 21]: −8.4%
% CV QC-Mid [1, 21]: 1.9%
Mean concentration QC-Mid [1, 21]: 7.33 ng/mL
Concentration QC-Mid ([1]; 1 Day at −20° C., nominal 8.00 ng/mL, run 33): 7.32 ng/mL and 7.29 ng/mL and 7.51 ng/mL and 7.18 ng/mL
% Bias QC-High [1, 22]: −6.6%
% CV QC-High [1, 22]: 2.7%
Mean concentration QC-High [1, 22]: 74.7 ng/mL
Concentration QC-High ([1]; 1 Day at −20° C., nominal 80.0 ng/mL, run 33): 74.9 ng/mL and 77.2 ng/mL and 72.3 ng/mL and 74.5 ng/mL
% Bias QC-LLOQ [1, 23]: 11.2%
% CV QC-LLOQ [1, 23]: 4.1%
Mean concentration QC-LLOQ [1, 23]: 0.556 ng/mL
Concentration QC-LLOQ ([1]; 2 Days at −20° C., nominal 0.500 ng/mL, run 33): 0.538 ng/mL and 0.563 ng/mL and 0.537 ng/mL and 0.585 ng/mL
% Bias QC-Mid [1, 24]: −6.7%
% CV QC-Mid [1, 24]: 4.8%
Mean concentration QC-Mid [1, 24]: 7.46 ng/mL
Concentration QC-Mid ([1]; 2 Days at −20° C., nominal 8.00 ng/mL, run 33): 6.98 ng/mL and 7.47 ng/mL and 7.55 ng/mL and 7.85 ng/mL
% Bias QC-High [1, 25]: −6.7%
% CV QC-High [1, 25]: 2.1%
Mean concentration QC-High [1, 25]: 74.7 ng/mL
Concentration QC-High ([1]; 2 Days at −20° C., nominal 80.0 ng/mL, run 33): 73.1 ng/mL and 75.1 ng/mL and 73.8 ng/mL and 76.6 ng/mL
Short-term stability in cholestyramine-treated human saliva ([1]; at −20° C.): up to 2 days
Stability in Treated Human Saliva ([1]; at −20° C., cholestyramine-treated human saliva): 2 days
% Bias QC-High [2, 26]: −2.9%
% CV QC-High [2, 26]: 3.0%
Difference from Fresh (%) QC-High [2, 26]: −4.5%
Mean concentration QC-High [2, 26]: 77.7 ng/mL
Concentration QC-High ([2]; 1 month −20° C. storage, nominal 80.0 ng/mL, run 35): 75.1 ng/mL and 78.3 ng/mL and 79.7 ng/mL
% Bias QC-High [2, 27]: −2.3%
% CV QC-High [2, 27]: 3.7%
Difference from Fresh (%) QC-High [2, 27]: −4.0%
Mean concentration QC-High [2, 27]: 78.1 ng/mL
Concentration QC-High ([2]; 1 month −80° C. storage, nominal 80.0 ng/mL, run 35): 81.2 ng/mL and 77.8 ng/mL and 75.4 ng/mL
Fresh QCs (Batch 34) Mean at Time Zero, QC-High ([2]; reference for −20° C. storage, nominal 80.0 ng/mL): 81.4 ng/mL
Fresh QCs (Batch 34) Mean at Time Zero, QC-High ([2]; reference for −80° C. storage, nominal 80.0 ng/mL): 81.4 ng/mL
